Assays:
Ole1 = molecular target: T1, Ole1 (Saccharomyces cerevisiae, UniProt P21147); test: Growth inhibition of yeast strain expressing Ole1 as sole desaturase; format: cell-based; conditions: yeast strain expressing Ole1 as sole desaturase
T1 construct: expressed in transfected cells; host or cells: S. cerevisiae ole1Δ strain (W303 pdr1Δ pdr3Δ background), plasmid pRS316 with TDH3 promoter and CYC1 terminator
T1 sequence (P21147 1-510): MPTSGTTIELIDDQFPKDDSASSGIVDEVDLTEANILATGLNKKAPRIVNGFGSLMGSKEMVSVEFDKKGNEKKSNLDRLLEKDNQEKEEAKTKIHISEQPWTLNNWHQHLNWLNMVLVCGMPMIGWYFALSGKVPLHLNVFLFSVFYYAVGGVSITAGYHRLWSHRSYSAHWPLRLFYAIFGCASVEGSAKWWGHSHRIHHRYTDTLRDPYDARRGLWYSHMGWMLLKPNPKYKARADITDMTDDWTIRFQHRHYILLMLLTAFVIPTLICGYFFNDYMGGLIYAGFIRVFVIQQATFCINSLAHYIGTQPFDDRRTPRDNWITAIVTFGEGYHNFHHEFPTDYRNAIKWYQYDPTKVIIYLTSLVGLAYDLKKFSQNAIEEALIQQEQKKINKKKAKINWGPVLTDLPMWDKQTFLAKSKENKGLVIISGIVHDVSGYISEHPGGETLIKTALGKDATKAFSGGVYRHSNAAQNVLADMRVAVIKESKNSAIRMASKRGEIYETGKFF
How it was run: (§1)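 Yeast ole1Δ strain (W303 pdr1Δ pdr3Δ background) carrying plasmid-borne Ole1, SCD1 or SCD5 as sole desaturase was grown in uracil-lacking media, pre-cultured in raffinose for 6 h, then seeded in galactose medium with compound in DMSO. Growth was read as OD600 after 30° C. incubation: 24 h for Ole1, 40 h for SCD1/SCD5.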

SCD1 = molecular target: T2, SCD1 (Homo sapiens, UniProt O00767); test: Growth inhibition of humanized yeast strain expressing SCD1 as sole desaturase; format: cell-based; conditions: humanized yeast strain expressing SCD1
T2 construct: host or cells: S. cerevisiae ole1Δ strain (W303 pdr1Δ pdr3Δ background), plasmid pRS316 with TDH3 promoter and CYC1 terminator
T2 sequence (O00767 1-359): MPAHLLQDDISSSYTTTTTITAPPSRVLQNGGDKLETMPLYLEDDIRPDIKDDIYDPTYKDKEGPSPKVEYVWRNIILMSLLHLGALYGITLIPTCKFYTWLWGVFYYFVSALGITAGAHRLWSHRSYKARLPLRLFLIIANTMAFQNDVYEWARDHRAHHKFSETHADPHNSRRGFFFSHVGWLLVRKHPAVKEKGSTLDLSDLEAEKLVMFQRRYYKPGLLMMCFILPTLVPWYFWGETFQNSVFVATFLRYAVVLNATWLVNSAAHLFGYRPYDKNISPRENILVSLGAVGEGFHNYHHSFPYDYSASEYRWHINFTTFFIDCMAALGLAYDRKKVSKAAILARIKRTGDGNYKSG
How it was run: as §1

SCD5 = molecular target: T3, SCD5 (Homo sapiens, UniProt Q86SK9); test: Growth inhibition of humanized yeast strain expressing SCD5 as sole desaturase; format: cell-based; conditions: humanized yeast strain expressing SCD5
T3 construct: host or cells: S. cerevisiae ole1Δ strain (W303 pdr1Δ pdr3Δ background), plasmid pRS316 with TDH3 promoter and CYC1 terminator
T3 sequence (Q86SK9 1-330): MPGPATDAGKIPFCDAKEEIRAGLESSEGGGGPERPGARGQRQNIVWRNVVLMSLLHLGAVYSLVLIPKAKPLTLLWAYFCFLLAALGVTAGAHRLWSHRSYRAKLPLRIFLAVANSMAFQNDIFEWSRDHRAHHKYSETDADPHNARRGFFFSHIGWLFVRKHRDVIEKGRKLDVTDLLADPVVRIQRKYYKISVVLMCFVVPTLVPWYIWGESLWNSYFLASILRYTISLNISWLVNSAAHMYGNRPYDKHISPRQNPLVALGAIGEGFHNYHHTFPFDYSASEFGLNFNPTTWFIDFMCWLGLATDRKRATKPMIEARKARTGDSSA
How it was run: as §1

[1] = tested on: yeast strains expressing the human ApoE4; test: Yeast ApoE4 toxicity rescue assay (OD600 growth); conditions: 24 h; for EC50: read-out: ApoE4 EC50; for Emax: read-out: ApoE4 Emax
Excerpt: The induced expression of α-synuclein and ApoE4 confers cytotoxicity, thus enabling the identification of compounds that can restore cell viability. This instantaneous/synchronous induction of α-synuclein and ApoE4 can be achieved due to the following expression control. In glucose-containing media, gene expression from the GAL1 promoter is ‘off’ and actively repressed by additional epigenetic factors. In raffinose, expression is ‘off’, but the promoter not actively repressed. Upon transition to galactose-containing media, the promoter is instantaneously turned ‘on’ to achieve robust and synchronous induction of α-synuclein or ApoE4 expression. This highly regulated induction provides a robust window for the determination of both efficacy (amplitude of protective effect) and potency (concentration of protective effect) of cytoprotective compounds.
Re-suspended compound stocks were subsequently arrayed into 384 well compound plates using automated pipetting. All other wells not receiving stock compound were filled with 10 μL of 100% DMSO using an automated plate filler (Multidrop Combi). An 11 point, 2-fold serial dilution was then performed using the robotic platform. Compound assay plates were covered with foil and stored at −20° C. until use.
Each strain was handled according to standard protocols and cultured in media composed of CSM (complete synthetic media), YNB (yeast nitrogenous base), and a 2% (w/v) carbon source (either glucose, raffinose, or galactose).
In a standard yeast assay, a single-use aliquot of cells was thawed on ice and diluted into CSM/glucose (5 mL). Cultures were grown for 8 hours at 30° C. This pre-growth enables the yeast to exit the thaw and begin to grow without expressing aSyn or ApoE4. After 8 hours, cell density (OD600) was determined and cultures diluted to an OD600 of 0.01 in CSM/raffinose for an overnight culture phase at 30° C. During this period, the active glucose repression of the GAL1 promoter was relieved; however, expression of the α-Syn/ApoE4 genes were not yet induced. After ˜16 hours of growth, cultures attain an OD600 of 0.4-0.8 and were ready to apply to assay plates containing compound.
Compound profiling assays were executed in clear-bottom 384 well plates. First, compound plates were thawed at room temperature for 45′, centrifuged at 1,000×g for 1 minute, and the foil removed. Clear 384 well assay plates were then filled with 15 μL of CSM/galactose. […] The pin tool was washed iteratively with both 50% DMSO and 100% ethanol between each assay plate. After delivering compound to each assay plate, the overnight CSM/raffinose aSyn or ApoE4 cultures were added at a 2X cell density (0.04 for aSyn and 0.08 for ApoE4) in CSM/galactose to achieve a final assay OD600 of 0.02 and 0.04 for aSyn and ApoE, respectively. The cultures (15 μL per well) were then dispensed to the compound -containing 384 well assay plates using an automated plate filler. Plates were incubated in a humidified 30° C. incubator for 40 or 24 hours for aSyn and ApoE4, respectively. The ODsoo of each assay plate was then read with a microplate reader (e.g., Perkin Elmer Envision).
The efficacy and potency of compounds were calculated according to the following. Raw data (OD600 values) were first background corrected to account for OD600 contributed by the plate and media itself. The efficacy (percent above DMSO, herein referred to as “Emax”) was calculated according to the equation: (Experimental well−DMSO control well)/(DMSO control well)*100. […] Normalized dose-response data was fit with a logistic regression curve using Spotfire (TIBCO), or similar curve-fitting software package. EC50 values were then reported along with EMax to provide both efficacy and potency measures for each analog and enable further compound design.

[2] = tested on: yeast strains expressing the human α-synuclein; test: Yeast α-synuclein toxicity rescue assay (OD600 growth); conditions: 40 h; for EC50: read-out: α-Syn EC50; for Emax: read-out: α-Syn Emax

COc1ccc(-c2noc(C3CCN(C(=O)CNc4nccc5ccccc45)CC3)n2)cc1OC [Compound 55]
IC50 (Ole1): > 45 µM
OLE1 % Max Inhibition (Ole1): 114.12%
IC50 (SCD1): 33.7 µM
SCD1 % Max Inhibition (SCD1): 74.99%
IC50 (SCD5): > 45 µM
SCD5 % Max Inhibition (SCD5): 74.78%
EC50 [1]: 7.9 µM
Emax [1]: 29%
EC50 [2]: 23.8 µM
Emax [2]: 47%

Cc1ccc(-c2noc(C3CCN(C(=O)[C@@H]4CC(=O)N(c5ccc(C)c(C)c5)C4)CC3)n2)cc1 [Compound 62]
IC50 (Ole1): > 45 µM
OLE1 % Max Inhibition (Ole1): 86.77%
IC50 (SCD1): > 45 µM
SCD1 % Max Inhibition (SCD1): 28.73%
IC50 (SCD5): > 45 µM
SCD5 % Max Inhibition (SCD5): 5.75%
EC50 [1]: 21.4 µM
Emax [1]: 430%
EC50 [2]: 21.7 µM
Emax [2]: 204%

COc1ccc(-c2noc(C3CCN(C(=O)[C@H]4CC(=O)N(c5ccc(C)c(C)c5)C4)CC3)n2)cc1 [Compound 64]
IC50 (Ole1): > 45 µM
OLE1 % Max Inhibition (Ole1): 115.95%
IC50 (SCD1): > 45 µM
SCD1 % Max Inhibition (SCD1): 32.39%
IC50 (SCD5): > 45 µM
SCD5 % Max Inhibition (SCD5): 42.05%
EC50 [1]: 15.3 µM
Emax [1]: 330%
EC50 [2]: 13.7 µM
Emax [2]: 228%

CCOc1ccc(-c2noc(C3CCN(C(=O)CNC(=O)c4ccccc4)CC3)n2)cc1OC [Compound 155]
OLE1 % Max Inhibition (Ole1): 1.65%
IC50 (SCD1): > 45 µM
SCD1 % Max Inhibition (SCD1): 98.25%
IC50 (SCD5): 33.8 µM
SCD5 % Max Inhibition (SCD5): 67.35%
EC50 [1]: 2.16 µM
Emax [1]: 865%
EC50 [2]: 0.011 µM
Emax [2]: 556%

Cc1ccc(N2CC(C(=O)N3CCC(c4nc(-c5ccccc5)no4)CC3)CC2=O)cc1C (stereo not drawn) [compound 1]
IC50 (Ole1): 40.3 µM
IC50 (SCD1): > 45 µM
IC50 (SCD5): > 45 µM
Emax [1]: 320%
Emax [2]: 155%

Cc1cccc(-c2noc(C3CCN(C(=O)C4CC(=O)N(c5ccc(C)c(C)c5)C4)CC3)n2)c1 (stereo not drawn) [compound 3]
IC50 (Ole1): 38.5 µM
IC50 (SCD1): > 45 µM
IC50 (SCD5): > 45 µM
Emax [1]: 200%
EC50 [2]: 17.8 µM
Emax [2]: 307%

CCN1C(=O)COc2ccc(-c3noc(C4CCN(C(=O)C5CC(=O)N(c6ccc(C)c(C)c6)C5)CC4)n3)cc21 (stereo not drawn) [compound 4]
IC50 (Ole1): > 45 µM
IC50 (SCD1): > 45 µM
IC50 (SCD5): > 45 µM
EC50 [1]: 11.8 µM
Emax [1]: 76%
EC50 [2]: 8.43 µM
Emax [2]: 59%

COc1ccc(-c2noc(N3CCC(C(=O)N4CCCCC4)CC3)n2)cc1OC [compound 6]
IC50 (Ole1): 39.1 µM
IC50 (SCD1): > 45 µM
IC50 (SCD5): 41.1 µM
EC50 [1]: 15.1 µM
Emax [1]: 815%
EC50 [2]: 10.2 µM
Emax [2]: 460%

CC(C)c1ccc(C(=O)N2CCC(c3nc(-c4cccc(F)c4)no3)CC2)cc1 [compound 8]
IC50 (Ole1): > 45 µM
IC50 (SCD1): > 45 µM
IC50 (SCD5): > 45 µM
Emax [1]: 111%
EC50 [2]: 13.8 µM
Emax [2]: 188%

O=C(NCC(=O)N1CCC(c2nc(-c3ccccc3)no2)CC1)c1ccccc1 [compound 9]
IC50 (Ole1): > 45 µM
IC50 (SCD1): > 45 µM
IC50 (SCD5): > 45 µM
Emax [1]: 301%
EC50 [2]: 12.1 µM
Emax [2]: 167%

COc1ccc(-c2noc(C3CCN(C(=O)CNC(=O)c4ccccc4)CC3)n2)cc1 [compound 10]
IC50 (Ole1): > 45 µM
IC50 (SCD1): > 45 µM
IC50 (SCD5): > 45 µM
EC50 [1]: 4.61 µM
Emax [1]: 736%
EC50 [2]: 4.87 µM
Emax [2]: 392%

COc1cccc(-c2noc(C3CCN(C(=O)CNC(=O)c4ccccc4)CC3)n2)c1 [compound 11]
IC50 (Ole1): > 45 µM
IC50 (SCD1): > 45 µM
IC50 (SCD5): > 45 µM
Emax [1]: 600%
EC50 [2]: 5.89 µM
Emax [2]: 309%

COc1ccc(-c2noc(C3CCN(C(=O)CNC(=O)c4ccc(C)cc4)CC3)n2)cc1OC [compound 13]
IC50 (Ole1): > 45 µM
IC50 (SCD1): > 45 µM
IC50 (SCD5): > 45 µM
EC50 [1]: 0.368 µM
Emax [1]: 837%
EC50 [2]: 0.058 µM
Emax [2]: 712%

COc1ccc(-c2noc(C3CCN(C(=O)CNC(=O)c4cccc(C)c4)CC3)n2)cc1OC [compound 14]
IC50 (Ole1): > 45 µM
IC50 (SCD1): > 45 µM
IC50 (SCD5): 27.5 µM
EC50 [1]: 1.83 µM
Emax [1]: 771%
EC50 [2]: 1.16 µM
Emax [2]: 463%

COc1ccc(-c2noc(C3CCN(C(=O)CNC(=O)c4ccc(C)c(C)c4)CC3)n2)cc1OC [compound 15]
IC50 (Ole1): > 45 µM
IC50 (SCD1): > 45 µM
IC50 (SCD5): > 45 µM
EC50 [1]: 3.63 µM
Emax [1]: 866%
EC50 [2]: 1.71 µM
Emax [2]: 628%

COc1ccc(-c2noc(C3CCN(C(=O)CNC(=O)c4ccc(C)c(C)c4)CC3)n2)cc1 [compound 16]
IC50 (Ole1): > 45 µM
IC50 (SCD1): 37.1 µM
IC50 (SCD5): > 45 µM
EC50 [1]: 21.2 µM
Emax [1]: 418%
EC50 [2]: 17.8 µM
Emax [2]: 249%

COc1cccc(-c2noc(C3CCN(C(=O)CNC(=O)c4ccc(C)c(C)c4)CC3)n2)c1 [compound 17]
IC50 (Ole1): > 45 µM
IC50 (SCD1): > 45 µM
IC50 (SCD5): > 45 µM
Emax [1]: 246%
EC50 [2]: 17.4 µM
Emax [2]: 330%

COc1ccc(-c2noc(C3CCN(C(=O)C4CC(=O)N(c5ccc(C)c(C)c5)C4)CC3)n2)cc1OC (stereo not drawn) [compound 19]
IC50 (Ole1): > 45 µM
IC50 (SCD1): > 45 µM
IC50 (SCD5): > 45 µM
EC50 [1]: 5.63 µM
Emax [1]: 891%
EC50 [2]: 2.43 µM
Emax [2]: 574%

COc1ccc(-c2noc(C3CCN(C(=O)C4CC(=O)N(c5ccc(C)c(C)c5)C4)CC3)n2)cc1 (stereo not drawn) [compound 20]
IC50 (Ole1): > 45 µM
IC50 (SCD1): > 45 µM
IC50 (SCD5): > 45 µM
EC50 [1]: 16.2 µM
Emax [1]: 529%
EC50 [2]: 15.1 µM
Emax [2]: 181%

COc1cccc(-c2noc(C3CCN(C(=O)C4CC(=O)N(c5ccc(C)c(C)c5)C4)CC3)n2)c1 (stereo not drawn) [compound 21]
IC50 (Ole1): > 45 µM
IC50 (SCD1): 39.9 µM
IC50 (SCD5): > 45 µM
Emax [1]: 447%
Emax [2]: 276%

O=C(NCC(=O)N1CCC(c2nc(-c3ccc(Cl)c(Cl)c3)no2)CC1)c1ccccc1 [compound 23]
IC50 (Ole1): > 45 µM
IC50 (SCD1): 33.6 µM
IC50 (SCD5): > 45 µM
EC50 [1]: 6.51 µM
Emax [1]: 466%
EC50 [2]: 7.68 µM
Emax [2]: 182%

O=C(NCC(=O)N1CCC(c2nc(-c3ccc(F)c(F)c3)no2)CC1)c1ccccc1 [compound 24]
IC50 (Ole1): > 45 µM
IC50 (SCD1): > 45 µM
IC50 (SCD5): 30 µM
EC50 [1]: 13.3 µM
Emax [1]: 301%
EC50 [2]: 5.13 µM
Emax [2]: 76%

COc1ccc(-c2noc(C3CCN(C(=O)CNC(=O)c4ccccc4Cl)CC3)n2)cc1OC [compound 25]
IC50 (Ole1): > 45 µM
IC50 (SCD1): > 45 µM
IC50 (SCD5): 39.4 µM
EC50 [1]: 1.85 µM
Emax [1]: 889%
EC50 [2]: 0.751 µM
Emax [2]: 619%

COc1ccc(-c2noc(C3CCN(C(=O)CNC(=O)c4cccc(Cl)c4)CC3)n2)cc1OC [compound 26]
IC50 (Ole1): > 45 µM
IC50 (SCD1): > 45 µM
IC50 (SCD5): 24.5 µM
EC50 [1]: 0.377 µM
Emax [1]: 811%
EC50 [2]: 0.042 µM
Emax [2]: 608%

COc1ccc(-c2noc(C3CCN(C(=O)CNC(=O)c4ccc(Cl)cc4)CC3)n2)cc1OC [compound 27]
IC50 (Ole1): > 45 µM
IC50 (SCD1): > 45 µM
IC50 (SCD5): > 45 µM
EC50 [1]: 0.39 µM
Emax [1]: 761%
EC50 [2]: 0.059 µM
Emax [2]: 589%

Source: patent US11873298B2, “Compounds and uses thereof” (JANSSEN PHARMACEUTICA NV, priority 2017, dated 2024)
